According to BigSolDB 2.1:

N#CCNC(=O)c1cnccc1C(F)(F)F
solubility (mole fraction)
Conditions	283.15 K	288.15 K	293.15 K	298.15 K	303.15 K	308.15 K	313.15 K	318.15 K	323.15 K
in 1,4-dioxane	–	0.0145	0.0175	0.0208	0.0248	0.0295	0.0348	0.041	0.0482
in THF	0.0263	0.0302	0.0343	0.0387	0.044	0.0502	0.057	0.0645	0.072
in acetone	0.0359	0.041	0.0464	0.0527	0.0595	0.0677	0.0766	0.0871	0.099
in acetonitrile	0.0173	0.0206	0.0245	0.0289	0.034	0.0404	0.0475	0.0557	0.0657
in ethanol	0.00429	0.00546	0.00686	0.00856	0.0107	0.0133	0.0163	0.0202	0.0246
in ethyl acetate	0.00961	0.0114	0.0134	0.0158	0.0182	0.0213	0.0248	0.0288	0.033
in isobutanol	0.00152	0.00202	0.00264	0.00343	0.00441	0.00561	0.0071	0.00885	0.011
in isopropanol	0.00249	0.00328	0.00424	0.00543	0.00696	0.00893	0.0114	0.0144	0.0181
in methanol	0.00943	0.0115	0.0139	0.0168	0.0202	0.0241	0.0286	0.034	0.0402
in n-butanol	0.00298	0.00376	0.00475	0.00589	0.00731	0.00906	0.0111	0.0138	0.0169
in n-butyl acetate	0.00479	0.00572	0.00684	0.00806	0.00932	0.011	0.0128	0.015	0.0173
in n-propanol	0.00267	0.00344	0.00436	0.00552	0.00691	0.00874	0.0109	0.0138	0.0174
